Test results as given in ChEMBL document CHEMBL4256941, “Histone demethylase inhibitors” (2016).

What was measured:
[1] = target: Lysine-specific demethylase 5A (Homo sapiens, UniProt P29375); assay: Inhibition of recombinant human C-terminal FLAG-tagged JARID1A (1 to 1090 residues) expressed in baculovirus infected sf9 cells using H3K4me3-biotin peptide as substrate after 30 mins in presence of alpha-ketoglutaric acid by LANCE TR-FRET assay
[2] = target: Lysine-specific demethylase 5B (Homo sapiens, UniProt Q9UGL1); assay: Inhibition of recombinant human N-terminal His-FLAG tagged JARID1B (2 to 751 residues) expressed in baculovirus infected sf9 cells using H3K4me3-biotin peptide as substrate after 30 mins in presence of alpha-ketoglutaric acid by LANCE TR-FRET assay
[3] = target: T1, Lysine-specific demethylase 4C (Homo sapiens, UniProt Q9H3R0); assay: Inhibition of recombinant human N-terminal GST-tagged JMJD2C (2 to 372 residues) expressed in baculovirus infected sf9 cells using H3K9me3-biotin peptide as substrate after 30 mins in presence of alpha-ketoglutaric acid by LANCE TR-FRET assay
T1 sequence (Q9H3R0 whole entry): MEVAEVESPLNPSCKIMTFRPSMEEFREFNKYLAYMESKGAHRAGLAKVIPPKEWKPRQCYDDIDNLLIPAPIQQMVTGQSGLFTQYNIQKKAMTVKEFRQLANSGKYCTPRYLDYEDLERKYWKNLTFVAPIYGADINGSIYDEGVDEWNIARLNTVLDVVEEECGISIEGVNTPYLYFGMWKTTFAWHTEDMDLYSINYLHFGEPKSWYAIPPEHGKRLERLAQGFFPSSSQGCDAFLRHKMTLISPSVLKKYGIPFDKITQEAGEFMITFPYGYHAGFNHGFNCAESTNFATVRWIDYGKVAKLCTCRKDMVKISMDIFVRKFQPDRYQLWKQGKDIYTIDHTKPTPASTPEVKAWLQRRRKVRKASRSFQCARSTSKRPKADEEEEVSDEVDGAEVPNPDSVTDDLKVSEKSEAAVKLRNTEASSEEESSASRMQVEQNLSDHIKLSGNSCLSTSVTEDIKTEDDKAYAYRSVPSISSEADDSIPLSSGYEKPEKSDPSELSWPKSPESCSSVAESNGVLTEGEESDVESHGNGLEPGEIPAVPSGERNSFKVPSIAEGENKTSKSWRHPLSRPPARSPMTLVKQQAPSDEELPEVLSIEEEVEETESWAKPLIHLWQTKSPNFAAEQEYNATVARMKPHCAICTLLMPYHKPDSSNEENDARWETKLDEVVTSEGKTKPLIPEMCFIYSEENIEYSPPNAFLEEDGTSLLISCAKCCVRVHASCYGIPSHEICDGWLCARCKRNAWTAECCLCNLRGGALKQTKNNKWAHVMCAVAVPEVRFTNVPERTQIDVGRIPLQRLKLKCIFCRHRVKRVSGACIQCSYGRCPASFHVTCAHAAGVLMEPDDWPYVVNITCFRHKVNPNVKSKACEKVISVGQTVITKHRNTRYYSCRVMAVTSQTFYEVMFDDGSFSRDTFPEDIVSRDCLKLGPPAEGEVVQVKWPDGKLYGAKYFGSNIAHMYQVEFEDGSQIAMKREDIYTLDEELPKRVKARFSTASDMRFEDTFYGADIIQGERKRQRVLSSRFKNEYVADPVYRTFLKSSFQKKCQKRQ

Lysine-specific demethylase 5A, sequence (P29375 whole entry, the tested form may be a part): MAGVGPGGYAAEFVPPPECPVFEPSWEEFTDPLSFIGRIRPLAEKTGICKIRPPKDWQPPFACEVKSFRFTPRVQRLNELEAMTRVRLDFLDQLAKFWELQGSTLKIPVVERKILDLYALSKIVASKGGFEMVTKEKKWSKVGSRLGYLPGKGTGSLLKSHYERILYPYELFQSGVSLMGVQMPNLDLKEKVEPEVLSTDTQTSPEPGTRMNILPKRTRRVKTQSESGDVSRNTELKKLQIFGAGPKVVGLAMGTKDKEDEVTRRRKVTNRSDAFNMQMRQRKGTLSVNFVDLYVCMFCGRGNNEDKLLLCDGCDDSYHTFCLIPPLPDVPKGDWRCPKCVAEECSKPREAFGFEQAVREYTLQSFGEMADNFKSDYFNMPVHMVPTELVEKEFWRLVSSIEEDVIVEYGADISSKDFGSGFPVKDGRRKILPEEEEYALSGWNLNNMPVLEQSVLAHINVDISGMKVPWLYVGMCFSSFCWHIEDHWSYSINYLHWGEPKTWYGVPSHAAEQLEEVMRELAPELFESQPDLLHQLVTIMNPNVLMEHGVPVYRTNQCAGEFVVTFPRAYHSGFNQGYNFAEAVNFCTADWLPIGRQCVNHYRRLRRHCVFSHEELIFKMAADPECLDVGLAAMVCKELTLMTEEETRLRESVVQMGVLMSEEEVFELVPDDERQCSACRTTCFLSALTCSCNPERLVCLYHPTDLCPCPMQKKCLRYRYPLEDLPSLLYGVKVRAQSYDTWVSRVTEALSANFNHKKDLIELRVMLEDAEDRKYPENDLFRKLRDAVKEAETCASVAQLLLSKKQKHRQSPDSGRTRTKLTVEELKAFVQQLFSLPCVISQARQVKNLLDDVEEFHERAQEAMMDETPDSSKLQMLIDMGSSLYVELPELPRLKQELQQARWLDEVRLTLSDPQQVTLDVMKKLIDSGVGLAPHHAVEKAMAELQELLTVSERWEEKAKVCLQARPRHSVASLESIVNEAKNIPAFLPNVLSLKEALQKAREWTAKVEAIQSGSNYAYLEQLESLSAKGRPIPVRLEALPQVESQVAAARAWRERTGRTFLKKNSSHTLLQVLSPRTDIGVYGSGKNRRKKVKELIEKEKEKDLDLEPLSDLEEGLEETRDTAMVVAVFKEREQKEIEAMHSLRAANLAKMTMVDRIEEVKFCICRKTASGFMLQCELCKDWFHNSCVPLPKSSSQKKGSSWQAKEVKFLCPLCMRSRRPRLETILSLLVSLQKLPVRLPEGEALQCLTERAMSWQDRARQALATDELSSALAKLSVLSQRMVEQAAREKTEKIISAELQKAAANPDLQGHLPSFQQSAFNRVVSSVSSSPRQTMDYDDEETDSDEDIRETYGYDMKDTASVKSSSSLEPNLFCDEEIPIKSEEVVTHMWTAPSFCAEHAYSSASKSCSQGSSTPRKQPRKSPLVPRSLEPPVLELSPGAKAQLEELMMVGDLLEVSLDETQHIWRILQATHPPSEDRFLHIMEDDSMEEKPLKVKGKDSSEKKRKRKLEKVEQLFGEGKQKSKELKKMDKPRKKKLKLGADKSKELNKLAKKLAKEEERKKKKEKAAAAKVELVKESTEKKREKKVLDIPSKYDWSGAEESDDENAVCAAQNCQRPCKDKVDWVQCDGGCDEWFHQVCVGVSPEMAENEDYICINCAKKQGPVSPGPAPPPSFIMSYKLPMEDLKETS
Lysine-specific demethylase 5B, sequence (Q9UGL1 whole entry, the tested form may be a part): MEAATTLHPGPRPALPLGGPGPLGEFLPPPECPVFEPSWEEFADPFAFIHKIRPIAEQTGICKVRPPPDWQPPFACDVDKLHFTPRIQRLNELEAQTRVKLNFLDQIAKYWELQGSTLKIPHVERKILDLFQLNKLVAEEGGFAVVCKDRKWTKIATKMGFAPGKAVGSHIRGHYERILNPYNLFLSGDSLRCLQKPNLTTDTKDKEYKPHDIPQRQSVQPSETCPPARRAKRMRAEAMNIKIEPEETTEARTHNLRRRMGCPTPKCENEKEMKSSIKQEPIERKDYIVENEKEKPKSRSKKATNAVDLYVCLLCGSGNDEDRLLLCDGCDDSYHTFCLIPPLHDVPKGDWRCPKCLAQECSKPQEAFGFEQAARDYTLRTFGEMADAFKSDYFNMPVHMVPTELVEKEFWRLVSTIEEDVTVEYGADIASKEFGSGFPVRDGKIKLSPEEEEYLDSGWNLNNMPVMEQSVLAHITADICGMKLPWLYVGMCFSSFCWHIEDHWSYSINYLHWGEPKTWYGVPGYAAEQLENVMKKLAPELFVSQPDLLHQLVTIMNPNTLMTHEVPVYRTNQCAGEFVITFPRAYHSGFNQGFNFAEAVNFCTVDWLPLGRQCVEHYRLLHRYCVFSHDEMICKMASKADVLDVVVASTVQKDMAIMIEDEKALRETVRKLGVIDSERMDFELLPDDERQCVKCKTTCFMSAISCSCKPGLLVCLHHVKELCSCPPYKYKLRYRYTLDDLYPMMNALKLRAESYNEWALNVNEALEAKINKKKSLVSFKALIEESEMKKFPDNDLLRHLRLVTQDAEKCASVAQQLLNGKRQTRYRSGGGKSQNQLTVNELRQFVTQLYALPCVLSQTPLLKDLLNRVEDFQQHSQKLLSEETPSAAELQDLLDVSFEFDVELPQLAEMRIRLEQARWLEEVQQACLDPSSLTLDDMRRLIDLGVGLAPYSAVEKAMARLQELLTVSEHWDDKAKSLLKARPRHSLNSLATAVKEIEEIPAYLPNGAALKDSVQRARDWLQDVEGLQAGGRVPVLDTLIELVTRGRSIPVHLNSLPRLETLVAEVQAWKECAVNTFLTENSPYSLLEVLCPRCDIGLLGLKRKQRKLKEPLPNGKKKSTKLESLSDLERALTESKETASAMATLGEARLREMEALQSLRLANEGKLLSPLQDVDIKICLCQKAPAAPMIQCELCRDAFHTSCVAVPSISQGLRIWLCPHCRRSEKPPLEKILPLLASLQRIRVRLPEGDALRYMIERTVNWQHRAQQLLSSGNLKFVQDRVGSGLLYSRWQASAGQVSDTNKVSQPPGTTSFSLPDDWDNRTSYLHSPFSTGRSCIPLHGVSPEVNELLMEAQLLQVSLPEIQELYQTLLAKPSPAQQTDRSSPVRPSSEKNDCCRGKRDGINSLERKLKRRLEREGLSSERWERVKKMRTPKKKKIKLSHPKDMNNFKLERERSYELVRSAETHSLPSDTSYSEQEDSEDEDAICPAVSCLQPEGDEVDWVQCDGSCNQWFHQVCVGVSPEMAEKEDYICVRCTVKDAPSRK

IC50 [1]: ≤ 100 nM | IC50 [2]: ≤ 100 nM | IC50 [3]: 100 to 1000 nM
Compound: O=C(O)c1ccnc(-n2nccc2OCc2ccc(F)c(OCc3ccc(F)cc3)c2)c1
